Laboratory results as given in PMC9821162 (International Journal of Molecular Sciences, 2023).
Like-named read-outs stand apart in the source and are kept apart here.

Key:
HGF mRNA [1] = experiment: Real-time PCR of HGF mRNA in MDA-MB-231 xenograft tumors; assay type: in vivo, nude mice (MDA-MB-231 human breast cancer xenograft); design: dose or concentration left out as unconfirmed; details: tumors at 0, 3, 6, 9, 12 days
Description: (§1) In vitro, MDA-MB-231 cells were prepared as described above. […] Tumors were obtained from three mice per group at 0, 3, 6, 9, and 12 days. The total RNA was extracted using an RNA isolation kit (Takara, Shiga, Japan) according to the manufacturer’s instructions. cDNA was synthesized from 2 μg of RNA using a reverse transcriptase M-MLV synthesis kit (Takara). Real-time PCR was performed using the MyiQ5 real-time PCR detection system (Bio-Rad) with SYBR Premix Ex Taq (Takara). The PCR products for human β-actin, […], and HGF were synthesized with the primer pairs FP (forward primer) 5′-[…]-3′ and RP (reverse primer) 5′-[…]-3′ (β-actin, Gene ID: 60), FP 5′-[…]-3′ and RP 5′-[…]-3′ (MET, Gene ID: 4233), as well as FP 5′-[…]-3′ and RP 5′-[…]-3′ (HGF, Gene ID: 3082). All primers were purchased from AuGCT DNA-SYN Biotechnology Co., Ltd. (Dalian, China). Samples were run in triplicate under the following conditions: an initial denaturation for 30 s at 95 °C, followed by 45 cycles of 15 s at 95 °C, 30 s at 60 °C, and 33 s at 72 °C. The levels of gene expression in each sample were normalized to β-actin mRNA.

p-MET [2] = experiment: Immunohistochemical staining (IOD) of p-MET in tumor tissue; assay type: in vivo, nude mice (MDA-MB-231 human breast cancer xenograft); details: 15 and 50 mg/kg for 18 days
HGF = experiment: Immunohistochemical staining (IOD) of HGF in tumor tissue; assay type: in vivo, nude mice (MDA-MB-231 human breast cancer xenograft); details: 15 and 50 mg/kg for 18 days
Description: After the paraffin sections of tumors were deparaffinized, rehydrated, and washed with PBS (pH 7.4), antigen retrieval was performed by boiling the sections in 10 mmol/L sodium citrate buffer (pH 6.0) in the microwave for 4 min. The endogenous peroxidase activity was quenched by placing the slides in 3% hydrogen peroxide in methanol. The slides were then blocked with 3% BSA-PBS, followed by incubation with a 1:425 dilution of the primary antibody of p-MET and HGF (Cell Signaling Technology, Danvers, MA, USA) overnight at 4 °C. Thereafter, the detection was performed using a biotin-conjugated secondary antibody and a streptavidin-horseradish peroxidase conjugate (SA-HRP), followed by colorimetric detection using diaminobenzidine (DAB). The sections were counterstained with hematoxylin and stabilized with a mounting medium. The immunohistochemical images with integrated optical density (IOD) of positive expression, which reflected the distribution characteristics of anti-p-MET and anti-HGF positive stained area in tumor tissues, were quantitatively analyzed using Image-Pro Plus version 6.0 (Media Cybernetics, Inc., Silver Spring, MD, USA).

[3] = Pharmacokinetic study in tumor-bearing nude mice (LC-MS/MS); assay type: in vivo; details: plasma; for AUC(0-inf) / AUC(0-t) / Cmax / Tmax / half-life / MRT: nude, mouse; for MRT: read-out: MRT (mean resident time)
Description: Data processing was performed with Phoenix WinNonlin 8.1.0.3530 (Pharsight Corporation, Mountain View, CA, USA).

MET mRNA [4] = experiment: Real-time PCR of MET mRNA in MDA-MB-231 cells; assay type: cell-based, human; details: in vitro
Description: as §1

p-MET [5] = details: cited from earlier work
MET mRNA [6] = system: MET mRNA; design: species or system nude mice (MDA-MB-231 human breast cancer xenograft); details: in vivo
[7] = system: MDA-MB-231 xenograft tumors; experiment: Tumor growth inhibition assay, MDA-MB-231 tumor xenograft model; assay type: in vivo, BALB/c nude mice; details: for tumor inhibitory rate: day 18, n = 6; for mean tumor volume: day 18, vehicle group 285.00 ± 30.82 mm^3
Description: MDA-MB-231 cells (2 × 10^7) were suspended in 200 μL of PBS (pH 7.4) and were inoculated subcutaneously into the second mammary fat pads of the nude mice. The tumor diameter was measured with a vernier caliper and converted into tumor volume using the formula 1/2 × A × B^2 (A = larger diameter, B = smaller diameter). The treatment was started when the average tumor volume reached 50 mm^3.
Xenograft mice were randomly divided into three groups, with six in each group. […] The blank control group received only the vehicle solution. The tumor size and body weight were measured every three days. After 18 days of treatment, the animals were euthanized by cervical displacement. The tumors were collected after the final treatment and frozen at −80 °C until use.

MET = details: cited from earlier work
MDA-MB-231 cells = details: in vitro, cited from earlier work
HGF mRNA [8] = experiment: Real-time PCR of HGF mRNA in MDA-MB-231 cells; assay type: cell-based, human; details: in vitro
Description: as §1

## COc1cc2c(Oc3ccc(NC(=O)C4(C(=O)Nc5ccc(F)cc5)CC4)cc3F)ccnc2cc1OCCCN1CCOCC1 [Foretinib]
HGF mRNA [1]
  mRNA expression level of HGF: effectively suppressed
p-MET [2]
  p-MET expression in the tumor tissues (IHC staining, IOD): decreased in a dose-dependent manner
HGF
  HGF expression in the tumor tissues (IHC staining, IOD): decreased in a dose-dependent manner
[3]; single oral dose 2 mg/kg
  AUC(0-inf): 407 ± 63.4 ng·h/mL
  AUC(0-t): 366 ± 76.4 ng·h/mL
  Cmax: 22.2 ± 11.2 ng/mL
  Tmax: 4 h
  half-life: 15.1 ± 2.49 h
  MRT: 20.1 ± 5.05 h
  Vd (volume of distribution): 109.72 ± 34.73 L/kg
  k (elimination constant): 0.046 ± 0.008 h⁻¹
[3]; single oral dose 10 mg/kg
  AUC(0-inf): 7260 ± 108 ng·h/mL
  AUC(0-t): 6210 ± 423 ng·h/mL
  Cmax: 334 ± 107 ng/mL
  Tmax: 2 h
  half-life: 19.9 ± 6.72 h
  MRT: 25.1 ± 8.36 h
  Vd (volume of distribution): 39.76 ± 13.95 L/kg
  k (elimination constant): 0.037 ± 0.012 h⁻¹
[3]; single oral dose 50 mg/kg
  AUC(0-inf): 13000 ng·h/mL
  AUC(0-t): 12600 ng·h/mL
  Cmax: 1430 ± 744 ng/mL
  Tmax: 0.5 h
  half-life: 9.48 ± 0.045 h
  MRT: 13.3 ± 0.73 h
  Vd (volume of distribution): 60.90 ± 31.53 L/kg
  k (elimination constant): 0.073 ± 0.0003 h⁻¹
MET mRNA [4]
  mRNA expression level of MET: effectively suppressed
p-MET [5]
  expression of p-MET in MDA-MB-231: remarkably inhibit
MET mRNA [6]
  mRNA expression level of MET: effectively suppressed
[7]; 15 mg/kg/day intragastric
  tumor inhibitory rate: 42.79 ± 8.52%
[7]; 50 mg/kg/day intragastric
  tumor inhibitory rate: 79.16 ± 4.58%
[7]; high dose group (50 mg/kg/day)
  mean tumor volume: 80.67 ± 17.00 mm^3
[7]; low dose group (15 mg/kg/day)
  mean tumor volume: 220.00 ± 70.14 mm^3
MET
  expression of MET in MDA-MB-231: remained unchanged
MDA-MB-231 cells; MDA-MB-231 cells
  apoptosis: induce marked apoptosis
  cell cycle arrest: arrest cancer cells mainly in the G2/M phase
MDA-MB-231 cells
  cell viability of MDA-MB-231: can decrease the cell viability
HGF mRNA [8]
  mRNA expression level of HGF: effectively suppressed
